Marks after values point to notes of the source that are not given here.
Columns and labels:
Type in all cases: cell-based
[1] = target: wild-type CqsS (Vibrio cholerae serotype O1, UniProt Q9KM66); details: for QS activity (in words): tested up to 50,000 nM; for maximal % response at the maximum concentration tested: at 50,000 nM, with respect to CAI-1 = 100%
[2] = target: CqsS C170A (Vibrio cholerae serotype O1, UniProt Q9KM66, C170A); assay: Light-based agonist bioassay with CqsS C170A mutant strain
[3] = target: CqsS C170Y (Vibrio cholerae serotype O1, UniProt Q9KM66, C170Y); assay: Light-based agonist bioassay with CqsS C170Y mutant strain; details: at 50,000 nM

Compound: CCCCCCCCO [1-octanol]
- QS activity (in words) [1]: no QS activity

Compound: CCC(O)C(=O)O (stereo not shown) [2-hydroxybutyric acid]
- QS activity (in words) [1]: no QS activity

Compound: CCCCCCCCCC(=O)[C@@H](O)CC [compound 1, S-3-hydroxytridecan-4-one, reference compound]
- % Response (percent maximal bioluminescence) ([2]; with respect to CAI-1 set at 100%): 100±44%
- maximal % response at the maximum concentration tested [3]: 20 ^c %

Compound: CCCCCCCCOC(=O)C(O)CC (stereo not shown) [compound 9, Octyl 2-hydroxybutanoate]
- maximal % response at the maximum concentration tested [3]: 66 ^c %

Compound: CCCCOC(=O)C(O)CC (stereo not shown) [compound 17, Butyl 2-hydroxybutanoate]
- maximal % response at the maximum concentration tested [1]: 23 ^c %
- QS activity (in words) [1]: nearly complete loss of QS activity

Compound: CCCCCCOC(=O)C(O)CC (stereo not shown) [compound 18, Hexyl 2-hydroxybutanoate]
- fold less active (higher EC50) than C8-ester-CAI-1 (9) [1]: greater than 4 fold

Compound: CCCCCCCOC(=O)C(O)CC (stereo not shown) [compound 19, Heptyl 2-hydroxybutanoate]
- fold less active (higher EC50) than C8-ester-CAI-1 (9) [1]: 2 fold

Compound: CCCCCCCCCOC(=O)C(O)CC (stereo not shown) [compound 20, Nonyl 2-hydroxybutanoate]
- fold more active (lower EC50) than C8-ester-CAI-1 (9) [1]: 2 fold

Compound: CCCCCCCCCCOC(=O)C(O)CC (stereo not shown) [compound 21, Decyl 2-hydroxybutanoate]
- fold less active (higher EC50) than C8-ester-CAI-1 (9) [1]: greater than 4 fold

Compound: CCCCCOCCOC(=O)C(O)CC (stereo not shown) [compound 22, 2-(Pentyloxy)ethyl 2-hydroxybutanoate]
- fold less active (higher EC50) than C8-ester-CAI-1 (9) [1]: > 13 fold

Compound: CCOCCOCCOC(=O)C(O)CC (stereo not shown) [compound 23, 2-Hydroxy-2-(2-ethoxyethoxy)ethylbutanoate]
- maximal % response at the maximum concentration tested [1]: 31 ^c %
- QS activity (in words) [1]: only minimal QS activity

Compound: CCCCCCOCCOC(=O)C(O)CC (stereo not shown) [compound 24, 2-(Hexyloxy)ethyl 2-hydroxybutanoate]
- fold less active (higher EC50) than C8-ester-CAI-1 (9) [1]: > 13 fold

Compound: CCCCC/C=C/COC(=O)C(O)CC (stereo not shown) [compound 26, (E)-Oct-2-en-1-yl 2-hydroxybutanoate]
- fold more active (lower EC50) than C8-ester-CAI-1 (9) [1]: 3 fold

Compound: CCCC/C=C/CCOC(=O)C(O)CC (stereo not shown) [compound 29, (E)-Oct-3-en-1-yl 2-hydroxybutanoate]
- fold less active (higher EC50) than C8-ester-CAI-1 (9) [1]: > 4 fold

Compound: CCC/C=C/CCCOC(=O)C(O)CC (stereo not shown) [compound 32, (E)-Oct-4-enyl 2-hydroxybutanoate]
- fold less active (higher EC50) than C8-ester-CAI-1 (9) [1]: 1.5 fold

Compound: CC/C=C/CCCCOC(=O)C(O)CC (stereo not shown) [compound 34, (E)-Oct-5-enyl 2-hydroxybutanoate]
- fold less active (higher EC50) than C8-ester-CAI-1 (9) [1]: > 4 fold

Compound: CCC(O)C(=O)OCCCCc1ccccc1 (stereo not shown) [compound 37, 4-Phenylbutyl 2-hydroxybutyrate]
- maximal % response at the maximum concentration tested ([2]; at 50,000 nM): 16 ^c %
- maximal % response at the maximum concentration tested [3]: 22 ^c %

Compound: CCC(O)C(=O)OCCCCCc1ccccc1 (stereo not shown) [compound 38, 5-Phenylpentyl 2-hydroxybutyrate]
- maximal % response at the maximum concentration tested [3]: 19 ^c %

Compound: CCCCc1ccccc1COC(=O)C(O)CC (stereo not shown) [compound 44, 1-(o-Butyl-phenyl)methyl 2-hydroxybutyrate]
- fold less active (higher EC50) than C8-ester-CAI-1 (9) [1]: > 278 fold
- QS activity (in words) [1]: very weak responses

Compound: CCCCCc1cccc(COC(=O)C(O)CC)c1 (stereo not shown) [compound 46, 1-(m-Pentyl-phenyl)methyl 2-hydroxybutyrate]
- fold less active (higher EC50) than C8-ester-CAI-1 (9) [1]: > 9 fold

Compound: CCc1ccccc1CCCOC(=O)C(O)CC (stereo not shown) [compound 49, 3-(o-Ethyl-phenyl)propyl 2-hydroxybutyrate]
- fold less active (higher EC50) than C8-ester-CAI-1 (9) [1]: > 278 fold
- maximal % response at the maximum concentration tested [1]: 28 ^c %
- QS activity (in words) [1]: very weak responses

Source: article PMC3798069 (Journal of medicinal chemistry, 2012)
